Measured values from patent US20250171430A1, “PYRAZOLYL COMPOUNDS AS KV7 CHANNEL ACTIVATORS” (Biohaven Therapeutics Ltd., priority 2022, published 2025).

Target: T1, Kv7.2/7.3 (Homo sapiens, UniProt O43525+O43526)
T1 construct: Kv7.2 tetracycline-induced, Kv7.3 constitutive
Assay: Kv7.2/7.3 Activation Assay (Thallium Flux Assay)
Type: cell-based
Details: hKV7.2/7.3 cell line; test compound at single concentration of 10 μM; fluorescence at 90 sec normalized to positive control (retigabine, 30 μM)
Description: The Thallium Flux Assay is used as a surrogate indicator of potassium channel activity.
The experimental protocol was adapted from the FluxOR™ II Green Potassium Ion Channel Assay User Guide (Pub. No. MAN0016084, Invitrogen). Conditions were optimized for the Kv7.2/7.3 cell line.
Cell Line: The hKV7.2/7.3 cell line was obtained from Chantest (cat. #CT6147).
Cell Culture: Kv7.2/7.3 cells were maintained in a media containing DMEM/F12; 50/50 (Fisher 11-330), 10% Fetal Bovine Serum (FBS) (Fisher 26-140), 100 units/mL Penicillin-Streptomycin (Fisher 15-140), 0.005 mg/ml Blasticidin (InvivoGen ant-bl-1), 0.5 mg/mL Geneticin (InvivoGen ant-gn-5), and 0.1 mg/mL Zeocin (Fisher R25001). One day prior to experimentation, cells were plated in 96 well clear bottom plates (Corning cat. #353219) in a media without Blasticidin, Geneticin, or Zeocin. In this cell line Kv7.3 channel expression is controlled by a constitutive promoter. Kv7.2 channel expression was induced by adding tetracycline (Sigma T7660) at a final concentration of 10 ng/mL overnight in a cell culture incubator at 37° C. and 5% CO2. On the day of assay, the cell culture medium in the 96-well plates was replaced by assay buffer containing the thallium-sensitive fluorescent sensor, FluxOR II Green prepared according to manufacturer's instructions. The 96-well plates were then incubated for 1 h at 37° C. Following the incubation, the FluxOR II Green-containing solution was replaced with extracellular solution.
Test Compound Plates: The test compound is diluted in a mixture of 0.1% DMSO/extracellular solution at a single concentration of 10 μM. Dilutions were made on a Biomek NXP (BECKMAN COULTER). Extracellular solution contained (in mM: 145 NaCl, 4 KCl, 2 CaCl2), 1 MgCl2, 10 HEPES, and 10 Glucose, pH 7.4).
Measurement and data analysis: Thallium-flux-mediated changes in intracellular fluorescence were made using a plate reader (Enspire, Perkin Elmer) set with an excitation wavelength of 475 nm and an emission wavelength of 530 nm. After a 15 sec baseline measurement, the stimulus buffer containing thallium and potassium was added to the 96-well plate containing FluxOR II Green-loaded cells and test compounds. Fluorescence values at 90 sec were normalized to the positive control (retigabine, 30 μM) and test compound activities were assigned categories according to the formula: “No Activity <0.15, “+” Moderate Activity 0.15-0.7, and “++” High Activity >0.7.

SMILES | Kv7.2/7.3 Activity
Cn1nc(NC(=O)CC2(C(F)(F)F)CC2)c(C2CCC2)c1-c1ccc(OC(F)(F)F)cc1 [Compound 31, N-(4-cyclobutyl-1-methyl-5-(4-(trifluoromethoxy)phenyl)-1H-pyrazol-3-yl)-2-(1-(trifluoromethyl)cyclopropyl)acetamide] | ++ (“++” High Activity ≥ 0.7)
Cn1nc(NC(=O)C[C@@H]2CC(F)(F)C2(F)F)c(C2CCC2)c1C(F)(F)c1ccccc1 [Compound 32, (R)-N-(4-cyclobutyl-5-(difluoro(phenyl)methyl)-1-methyl-1H-pyrazol-3-yl)-2-(2,2,3,3-tetrafluorocyclobutyl)acetamide] | ++ (“++” High Activity ≥ 0.7)
Cn1nc(NC(=O)C[C@H]2CC(F)(F)C2(F)F)c(C2CCC2)c1-c1ccc(OC(F)(F)F)cc1 [Compound 33, (S)-N-(4-cyclobutyl-1-methyl-5-(4-(trifluoromethoxy)phenyl)-1H-pyrazol-3-yl)-2-(2,2,3,3-tetrafluorocyclobutyl)acetamide] | ++ (“++” High Activity ≥ 0.7)
Cn1nc(NC(=O)C[C@H]2CC(F)(F)C2(F)F)c(C2CCC2)c1-c1ccc(C(C)(C)O)cc1 [Compound 34, (S)-N-(4-cyclobutyl-5-(4-(2-hydroxypropan-2-yl)phenyl)-1-methyl-1H-pyrazol-3-yl)-2-(2,2,3,3-tetrafluorocyclobutyl)acetamide] | + (“+” Moderate Activity 0.15-0.7)
Cn1nc(NC(=O)C[C@H]2CC(F)(F)C2(F)F)c(C2CCC2)c1-c1ccc(C(F)(F)F)cn1 [Compound 35, (S)-N-(4-cyclobutyl-1-methyl-5-(5-(trifluoromethyl)pyridin-2-yl)-1H-pyrazol-3-yl)-2-(2,2,3,3-tetrafluorocyclobutyl)acetamide] | + (“+” Moderate Activity 0.15-0.7)
Cn1nc(NC(=O)CC2(C(F)(F)F)CC2)c(C2CCC2)c1-c1ccc(C(F)(F)F)cn1 [Compound 36, N-(4-cyclobutyl-1-methyl-5-(5-(trifluoromethyl)pyridin-2-yl)-1H-pyrazol-3-yl)-2-(1-(trifluoromethyl)cyclopropyl)acetamide] | − (“−” No Activity < 0.15)
Cn1nc(NC(=O)C[C@@H]2CC(F)(F)C2(F)F)c(CC(F)(F)F)c1-c1ccccc1 [Compound 37, (R)-N-(1-methyl-5-phenyl-4-(2,2,2-trifluoroethyl)-1H-pyrazol-3-yl)-2-(2,2,3,3-tetrafluorocyclobutyl)acetamide] | ++ (“++” High Activity ≥ 0.7)
Cn1nc(NC(=O)C[C@H]2CC(F)(F)C2(F)F)c(CC(F)(F)F)c1-c1ccccc1 [Compound 38, (S)-N-(1-methyl-5-phenyl-4-(2,2,2-trifluoroethyl)-1H-pyrazol-3-yl)-2-(2,2,3,3-tetrafluorocyclobutyl)acetamide] | ++ (“++” High Activity ≥ 0.7)
Cn1nc(NC(=O)C[C@H]2CC(F)(F)C2(F)F)c(C2CCC2)c1C(F)(F)c1ccccc1 [Compound 39, (S)-N-(4-cyclobutyl-5-(difluoro(phenyl)methyl)-1-methyl-1H-pyrazol-3-yl)-2-(2,2,3,3-tetrafluorocyclobutyl)acetamide] | ++ (“++” High Activity ≥ 0.7)
Cn1nc(NC(=O)C[C@H]2CC(F)(F)C2(F)F)c(C2CC(F)(F)C2)c1-c1ccc(OC(F)(F)F)cc1 [Compound 40, (S)-N-(4-(3,3-difluorocyclobutyl)-1-methyl-5-(4-(trifluoromethoxy)phenyl)-1H-pyrazol-3-yl)-2-(2,2,3,3-tetrafluorocyclobutyl)acetamide] | ++ (“++” High Activity ≥ 0.7)
Cn1nc(NC(=O)CC2(C(F)(F)F)CC2)c(C2CC(F)(F)C2)c1-c1ccc(OC(F)(F)F)cc1 [Compound 42, N-(4-(3,3-difluorocyclobutyl)-1-methyl-5-(4-(trifluoromethoxy)phenyl)-1H-pyrazol-3-yl)-2-(1-(trifluoromethyl)cyclopropyl)acetamide] | + (“+” Moderate Activity 0.15-0.7)
